The record followed here is US20180289655A1, “Methods and Compositions for the Intravenous Administration of Fumarates for the Treatment of Neurological Diseases” (Biogen MA Inc., priority 2015, published 2018).

Several values for one entry are separate records, joined by “and”; a condition that tells them apart may be missing. Equal entries are not always repeated. Entries after “also recorded” stand apart in the source; their conditions may differ. Structures can show the parent of a compound that is named as a salt.

Data set [1] in a line: (^14C)DMF distribution viewed in sagittal section (QWBA). In kind it is in vivo, mice. As to conditions: 10 and 60 minutes.
For another data set, the system named is Osgin1. The data set can be described thus: qRT-PCR transcript fold-change in tissues after DMF or MMF dosing. In kind it is in vivo, C57BL/6 mice. As to conditions: MMF IV 30 mpk, Study 2; for Osgin1 fold change vs vehicle, jejunum / Osgin1 fold change vs vehicle, kidney: 30 mg/kg. The procedure: (§1) For RNA preparation, frozen tissues were placed in 2 mL RNAse-free 96-well blocks with 1.5 mL QIAzol Lysis Reagent (QIAgen) and a 3.2 mm stainless steel bead (BioSpec Products, Bartlesville, Okla.). Tissues were disrupted for four cycles of 45 seconds in a Mini-Beadbeater (Biospec Products). RNA was extracted with chloroform and the aqueous phase was mixed with an equal volume of 70% ethanol. Extracted RNA was applied to RNeasy 96 plates and purified by the spin method according to the manufacturer's protocol (RNeasy 96 Universal Tissue Protocol, QIAgen, Hilden Germany).
(§2) Samples were reverse-transcribed into cDNA according to the manufacturer protocols using the High Capacity cDNA Reverse Transcription Kit (Life Technologies, Carlsbad, Calif.) and analyzed by qRT-PCR. Mouse target gene primers and 6-FAM™ dye-labeled TaqMan® MGB™ probes (Life Technologies) were used. Reactions containing 100 ng of cDNA, 900 nM of each primer, and 250 nM TaqMan probes were cycled on a QuantStudio 12 k-flex system (Life Technologies) once for 10 minutes at 95° C., followed by 40 cycles of 95° C. for 10 seconds and 60° C. for 1 minute. All samples were measured in triplicate with Gapdh as a normalizing gene. Taqman primer/probe sets from Life Technologies included: Akr1b8 (Mm00484314_m1); Gapdh (Mm03302249_g1); Gclc (Mm00802655_m1); Hmox1 (Mm00516005_m1); Nqo1 (Mm01253561_m1); and Osgin1 (Mm00660947_m1). Comparative CT method was used to calculate fold changes and samples were normalized relative to time-matched vehicle control. […]
(§3) Ten minutes after dosing, 4 animals from each group were sacrificed, and plasma and tissues (brain, kidney, jejunum and spleen) were collected to quantify MMF exposure levels, as well as whole blood to perform CBC. Two hours post-dose, another 4 animals from each group were sacrificed, and plasma, whole blood, and tissues were collected. Tissue samples from the 2-hour time point were split, with half of each sample used for MMF exposure analysis, and half for RNA extraction/qRT-PCR to evaluate the expression of Nrf2 target genes. Six hours after dosing, the last 4 animals from each group were sacrificed, and whole blood and tissues were collected.
(§4) Table 7 is a summary table of fold changes, relative to time-matched vehicle controls, for indicated genes in indicated tissues. Values indicate the mean fold-change±the standard deviation (n=4). Changes that were significant from vehicle are indicated in bold (one way ANOVA with Tukey's multiple comparison test). […]

For another data set, the system named is Nqo1. The data set is described as above. In kind it is in vivo, C57BL/6 mice. The following applies: MMF IV 30 mpk, Study 2; for Nqo1 fold change vs vehicle, jejunum / Nqo1 fold change vs vehicle, kidney: 30 mg/kg. The procedure: as §1, §2, §3, §4
For a further data set, the system named is Akr1b8. The description is as above. In kind it is in vivo, C57BL/6 mice. As to conditions: MMF IV 30 mpk, Study 2. The procedure:
as §1
(§5) Samples were reverse-transcribed into cDNA according to the manufacturer protocols using the High Capacity cDNA Reverse Transcription Kit (Life Technologies, Carlsbad, Calif.) and analyzed by qRT-PCR. Mouse target gene primers and 6-FAM™ dye-labeled TaqMan® MGB™ probes (Life Technologies) were used. Reactions containing 100 ng of cDNA, 900 nM of each primer, and 250 nM TaqMan probes were cycled on a QuantStudio 12 k-flex system (Life Technologies) once for 10 minutes at 95° C., followed by 40 cycles of 95° C. for 10 seconds and 60° C. for 1 minute. All samples were measured in triplicate with Gapdh as a normalizing gene. Taqman primer/probe sets from Life Technologies included: Akr1b8 (Mm00484314_m1); Gapdh (Mm03302249_g1); Gclc (Mm00802655_m1); Hmox1 (Mm00516005_m1); Nqo1 (Mm01253561_m1); and Osgin1 (Mm00660947_m1). Comparative CT method was used to calculate fold changes and samples were normalized relative to time-matched vehicle control.
(§6) At the 10-minute time point, 4 animals from each group were sacrificed, with plasma and tissues (brain, jejunum and kidney) collected to determine MMF exposure. Two hours after dosing, the remaining 4 animals were sacrificed, and plasma and tissues were collected. Tissue samples from the 2-hour time point were divided, with half of each sample used for MMF exposure analysis, and half for RNA extraction and qRT-PCR to evaluate the expression of Nrf2 target genes.
as §3
(§7) Table 7 is a summary table of fold changes, relative to time-matched vehicle controls, for indicated genes in indicated tissues. Values indicate the mean fold-change±the standard deviation (n=4). Changes that were significant from vehicle are indicated in bold (one way ANOVA with Tukey's multiple comparison test).
(§8) A CBC with differential panel was performed at 10 minutes post-last dose via facial vein bleeding, and at 2 hours after the last dose, pharmacodynamic Nrf2 transcriptional responses were analyzed in tissues from the same animals. Histopathology was also performed on regions of the tail in a pilot toxicology study.

The subject of a further data set is Hmox1. The description is as above. In kind it is in vivo, C57BL/6 mice. As to conditions: MMF IV 30 mpk, Study 2. The procedure:
as §1, §5, §6, §3, §7, §8

In a further data set the test system is Gclc. Described as above. In kind it is in vivo, C57BL/6 mice. The following applies: MMF IV 30 mpk, Study 2. The procedure:
as §1, §5, §6, §3, §7, §8

The test system of a further data set is blood cell populations. The data set can be described thus: Complete blood count (CBC) with differential after IV dosing. In kind it is in vivo, C57BL/6 mice. As to conditions: Study 2, single IV dose DMF 30 mg/kg or MMF 27.08 mg/kg. On the procedure: Whole blood samples (250 μL) were collected in EDTA tubes at indicated time points after dosing, and were maintained at 4° C. until analysis for CBC with differential at Charles River Laboratories (analyzed within 24-36 hours from time of collection).
Statistical analyses on blood cell fractions were not completed due to the overall variability and low number of replicates for the samples in this pilot study.
as §8

The nature of data set [2]: MMF exposure in plasma and tissues after DMF PO/IV or MMF IV (LC-MS/MS). In kind it is in vivo, C57BL/6 mice. The procedure: Aliquots (25 μL) of either plasma or tissue homogenate samples were extracted by protein precipitation with acetonitrile containing 4C13-MMF as the internal standard. For tissue samples, aliquots of homogenization solution (plasma with 12.5 mg/mL of NaF) were added to the tissue samples. The tissue samples were homogenized at 6.5 m/s for 60 seconds on a Fast Prep Tissue Homogenizer prior to protein precipitation. Concentrations of MMF in plasma, brain, jejunum and kidney samples were determined using qualified LC-MS/MS assays in the respective matrices. Data collections and integrations were accomplished using an API 5500 triple quadrupole mass spectrometer with a turbo ion spray interface (AB Sciex, Foster City, Calif.), and Analyst software (version 1.6.1). The peak area ratios of MMF relative to its internal standard were used to construct a standard curve using a quadratic regression with a 1/x^2 weighting. The lower limits of quantitation (LLOQ) were 1 ng/mL for the three tissue assays and 10 ng/mL for the plasma assay, respectively. The performances of the assays were monitored by the precision and accuracy of the standards and quality control samples.
MMF exposure levels were evaluated 10 minutes and 2 hours after dosing, while pharmacodynamic transcriptional responses were analyzed at 2 hours post-dose.
as §6
MMF exposure levels were evaluated 10 minutes and 2 hours after dosing, while transcriptional pharmacodynamic responses were analyzed at 2 and 6 hours post-dose. A complete blood count (CBC) with differential panel was performed at 10 minutes, 2 hours, and 6 hours post-dose.
as §3

Data set [3] in a line: PET/MR imaging of (^11C)DMF tissue distribution after oral or intravenous administration. In kind it is in vivo, CD1 mice. The procedure: To determine the localization and retention of DMF administered by different routes in vivo, mice were administered isotopically labeled DMF either orally or through tail vein injections. […] Acquired images from PET experiments were analyzed using inviCRO software. […] All animals were anaesthetized during image acquisition. […] The imaging data from the three groups of treated animals were quantified according to tissue type using inviCRO image analysis software. Regions of Interest (ROIs) for the brain, heart, liver, kidneys, scapular muscle, and whole body were defined by fitting ellipsoids of fixed volume to the regions. The scapular muscle ROI was hand-drawn and is not representative of all mouse muscle, but is composed of only a small region of its respective ROI.

On to `COC(=O)/[14CH]=[14CH]/C(=O)OC` [(^14C)DMF, [2,3-^14C] DMF], for which the “(^14C) signal in sagittal section” value in [1] (IV 0.5 mg/kg) is “displayed signal in the kidneys and brain”; in [1] (PO 0.5 mg/kg), “had less signal in the brain”.

As for `COC(=O)/C=C/C(=O)O` [MMF, monomethyl fumarate], in the data set on Osgin1 (2 hr), the “Osgin1 fold change vs vehicle, brain” value is 1.9 ± 0.3 fold; the “Osgin1 fold change vs vehicle, jejunum” value stood at 1.6±0.1 fold; the “Osgin1 fold change vs vehicle, kidney” value was determined as 2.4±0.8 fold. Besides, in the data set with Osgin1 (6 hr), the “Osgin1 fold change vs vehicle, brain” value was determined as 1.1 ± 0.1 fold; the “Osgin1 fold change vs vehicle, jejunum” value is on record as 1.2±0.1 fold; the “Osgin1 fold change vs vehicle, kidney” value stood at 1.4±0.0 fold. In the data set on Nqo1 (2 hr), the “Nqo1 fold change vs vehicle, brain” value came out at 1.1 ± 0.1 fold; the “Nqo1 fold change vs vehicle, jejunum” value turned out to be 1.5±0.2 fold; the “Nqo1 fold change vs vehicle, kidney” value is 1.6±0.4 fold. In the data set with Nqo1 (6 hr), the “Nqo1 fold change vs vehicle, brain” value is given as 1.2 ± 0.1 fold; the “Nqo1 fold change vs vehicle, jejunum” value amounted to 1.7±0.1 fold; the “Nqo1 fold change vs vehicle, kidney” value is reported as 2.3±0.3 fold. Moreover, in the data set with Akr1b8 (2 hr), the “Akr1b8 fold change vs vehicle, brain” value is recorded as 1.0 ± 0.2 fold and the “Akr1b8 fold change vs vehicle, kidney” value turned out to be 1.2 ± 0.1 fold. In addition, the “Akr1b8 fold change vs vehicle, jejunum” value with Akr1b8 (2 hr, 30 mg/kg) worked out at 2.4±0.7 fold. In the data set with Akr1b8 (6 hr), the “Akr1b8 fold change vs vehicle, brain” value was found to be 1.0 ± 0.1 fold and the “Akr1b8 fold change vs vehicle, jejunum” value is reported as 2.9 ± 1.2 fold. In addition, in the data set on Akr1b8 (6 hr, 30 mg/kg), the “Akr1b8 fold change vs vehicle, kidney” value was determined as 1.5±0.1 fold. Also, in the data set with Hmox1 (2 hr), the “Hmox1 fold change vs vehicle, brain” value is reported as 1.0 ± 0.1 fold; the “Hmox1 fold change vs vehicle, jejunum” value is on record as 0.9 ± 0.1 fold; the “Hmox1 fold change vs vehicle, kidney” value turned out to be 1.6 ± 0.3 fold. Also, in the data set on Hmox1 (6 hr), the “Hmox1 fold change vs vehicle, brain” value is 1.0 ± 0.0 fold; the “Hmox1 fold change vs vehicle, jejunum” value is given as 1.1 ± 0.1 fold; the “Hmox1 fold change vs vehicle, kidney” value was found to be 3.3 ± 0.8 fold. In addition, in the data set on Gclc (2 hr), the “Gclc fold change vs vehicle, brain” value is 1.0 ± 0.0 fold and the “Gclc fold change vs vehicle, jejunum” value is recorded as 1.2 ± 0.3 fold. For the same compound, the “Gclc fold change vs vehicle, kidney” value with Gclc (2 hr, 30 mg/kg) came out at 1.9±0.7 fold. Further, the “Gclc fold change vs vehicle, brain” value with Gclc (6 hr) was 1.0 ± 0.1 fold. Further, in the data set with Gclc (6 hr, 30 mg/kg), the “Gclc fold change vs vehicle, jejunum” value worked out at 1.5±0.1 fold and the “Gclc fold change vs vehicle, kidney” value was 2.3±0.6 fold. In the data set on blood cell populations (2-hour time point), the “Reduction in white blood cell counts (neutrophils, lymphocytes, monocytes, eosinophils, basophils)” value is given as “did not specifically coincide with DMF or MMF treatment”. Moreover, the “Effect on red blood cells, hemoglobin, hematocrit, mean corpuscular volume, platelets” value with blood cell populations (10 minutes, 2 and 6 hours) was “no effect on red blood cells, hemoglobin, hematocrit, mean corpuscular volume, or platelets”. In addition, in data set [2] (C57BL/6, mouse, brain, Study 2, MMF IV 27.08 mg/kg, 10 minutes, read-out: Brain to plasma MMF ratio (tissue [MMF]/plasma [MMF]*100)), the Kp at 10 min stood at 7.2 ± 3. Moreover, the concentration at 10 min in [2] (C57BL/6, mouse, plasma, Study 2, MMF IV 27.08 mg/kg, 10 minutes, n=4, read-out: MMF level in plasma) was 13000 ng/mL and 100 µM. Further, the “Difference in brain MMF levels, animals receiving MMF compared to DMF via IV dosing” value in data set [2] (Study 2, 10 minutes, not significant) is on record as 31%. In addition, the “MMF level in plasma or any tissues” value in [2] (Study 2, 2 hours, DMF 30 mg/kg or MMF 27.08 mg/kg IV) is recorded as “no detectable MMF in plasma or in any tissues”. For the same compound, in [2] (Study 2, IV, 10 minutes), the “MMF levels in kidney, jejunum and spleen, DMF versus MMF” value is reported as “no significant differences were noted in MMF levels”; the “Tissue penetration ratios in kidney, jejunum or spleen, DMF versus MMF” value is “no significant differences in tissue penetration ratios”.

In the case of (^11C) dimethyl fumarate [(^11C)DMF], in [3] (IV 0.5 mg/kg, imaged up to 90 minutes, 0.5 mg/kg), the “PET signal distribution in tissues” value was “positive signal throughout various tissues of the body including the brain and heart; also recorded: signal was higher in most tissues; also recorded: localized in numerous tissues, including the brain, as early as 30 seconds after administration”. Further, the “PET signal in brain regions” value is “high levels of signal in all regions of the brain throughout the observation period; also recorded: all emitted a strong signal as compared to olfactory regions” in data set [3] (IV 0.5 mg/kg, 0.5 mg/kg) and “almost no signal was detected in any region; also recorded: significantly lower levels of signal throughout the brain” in data set [3] (PO 0.5 mg/kg or 200 mg/kg).
